Test results reported in PMC9975698, “Hyperoside alleviates toxicity of β-amyloid via endoplasmic reticulum-mitochondrial calcium signal transduction cascade in APP/PS1 double transgenic Alzheimer's disease mice” (Redox Biology, 2023).

Key:
Assay type in all cases: cell-based
HT22 cells [1] = assay: Mitochondrial membrane potential by JC-1; conditions: CCCP positive control
Excerpt: The mitochondrial membrane potential of HT22 stained with 5,5′,6,6′-tetrachloro-1,1′,3,3′-tetraethylbenzimidazolyl cobalt iodide (JC-1) was observed by laser scanning confocal microscopy.

HT22 cells [2] = assay: Cytotoxicity (MTT) assay; conditions: aggregated Aβ 30 μM
Procedure: Cytotoxicity was assessed using the MTT (5.0 mg/mL) assay. 4 × 10^3 HT22 cells per well were seeded in 96-well plates. After overnight incubation, cells were treated with Aβ aggregates (30 μM) for 48 h with or without the presence of HYP (20–80 μM). Cells were treated with DMSO as a control. Subsequently, MTT (10 μL) was added to each well for 4 h, followed by the addition of 100 μL of lysis buffer (10% SDS in 0.01 mol/L hydrochloric acid) and overnight incubation. The absorbance was measured at 570 nm the next day. The formula was calculated as a percentage of cell viability: Cell viability (%) = A (treatded) / A (control) × 100%. Data were obtained from three independent experiments in triplicate.

HT22 cells [3] = assay: Fluo-3 detection of calcium ion concentration; conditions: after addition of Aβ
Procedure: 2 × 10^5 HT22 cells were incubated in 35 mm confocal dishes for 24 h at 37 °C in a CO^2 incubator. A 5 mM Fluo-3 AM stock solution was diluted with Hanks-Balanced Salt Solution (HBSS) to a 5 μM working solution and then added to the cells for 30 min at 37 °C. HT22 cells were washed three times with HEPES-buffered saline and then incubated in an imaging chamber at 37 °C for an additional 10 min. After the addition of 30 μM of Aβ aggregates in HBSS buffer, changes in cellular Ca^2+ levels were monitored by epifluorescence microscopy (Applied Precision DeltaVision Elite, Applied Precision, Inc., United States) using the real-time mode for tracking Fluo-3 changes for 5 min. The data inspection program provided by DeltaVision software was used to measure the intensity of Fluo-3 fluorescence.

HT22 cells [4] = assay: Annexin V-PI detection by flow cytometry; conditions: BAPTA/AM co-treatment, annexin V-PI staining
Procedure: Apoptosis was detected with Annexin V staining kit (BD Biosciences, CA, USA). […] The number of apoptotic cells was quantified by flow cytometry (BD FACSAria III, CA, USA). Data acquisition and analysis were performed with CellQuest (BD Biosciences) from three independent experiments.

HT22 cells [5] = assay: Cytoplasmic calcium dynamics (FLIPR Calcium 6); conditions: HT22 cells, TG or Aβ 30 μM
Procedure: Intracellular Ca^2+ dynamics were determined using the FLIPR Calcium 6 Assay Kit (Molecular Devices) according to the manufacturer's instructions. Briefly, HT22 was housed at 4 × 10^4 cells per well in a black-walled and clear-bottom 96 multi-well plate (Costar, MA, USA) and treated with Calcium 6 reagent for 1 h.

“Carbonyl cyanide m-chlorophenyl hydrazine [CCCP, reference compound]” was tested, and the “mitochondrial membrane potential (JC-1)” value (HT22 cells [1]) was “loss of membrane potential”.
For “Aβ: Aβ (1–42) peptide incubated at 37 °C for 5 days to form Aβ aggregates [reference compound]”, the “cell death by aggregated Aβ alone” value (HT22 cells [2]) was “induced cell death in HT22” and the “Fluo-3 fluorescence intensity (Ca2+ level)” value (HT22 cells [3]) was “significant increase of fluorescence intensity”.
For CC(=O)OCOC(=O)CN(CC(=O)OCOC(C)=O)c1ccccc1OCCOc1ccccc1N(CC(=O)OCOC(C)=O)CC(=O)OCOC(C)=O [BAPTA/AM], the “percentage of Aβ-induced cell death” value (HT22 cells [4]) was “decrease the percentage of Aβ-induced cell death”.
C/C=C(/C)C(=O)O[C@H]1C(C)=C2[C@H]([C@@H]1OC(=O)CCCCCCC)[C@@](C)(OC(C)=O)C[C@H](OC(=O)CCC)[C@@]1(O)[C@H]2OC(=O)[C@@]1(C)O [TG, Thapsigargin, reference compound] was tested, and the “dynamic Ca2+ level, inducer alone” value (HT22 cells [5]) was “prompt increase in Ca^2+ level”.
